The text below walks through data of US7906545B2, “Prodrugs of CC-1065 analogs” (priority 2002, dated 2011).

For data set [1] the following is noted: cited from earlier work.
A further data set has as its system mice. The conditions noted are these: single intravenous dose of 12.5 μg/kg; cited from earlier work.
For data set [2] the following is noted: vs doxorubicin, methotrexate and vincristine; cited from earlier work.
For data set [3] the following is noted: phenyl carbamate prodrug of adozelesin; cited from earlier work.
For data set [4] the following is noted: as compared with DC1.
Data set [5] in a line: stability in aqueous solutions. The class given is physicochemical.
In a further data set the test system is carboxyl esterase. Put plainly: conversion of carbamate prodrug into parent drug by incubation in serum, plasma or with carboxyl esterase. In kind it is in vitro ADME. The conditions noted are these: plasma or with an enzyme such as carboxyl esterase.
The test system of a further data set is alkaline phosphatase. The conditions noted are these: incubation with alkaline phosphatase. On the procedure:
Cells to be evaluated can be exposed to the compounds for 24 hours and the surviving fractions of cells measured in direct assays by known methods.

The test system of data set [6] is endogenous alkaline phosphatase. The note with it: presumably hydrolysis by endogenous alkaline phosphatase; cited from earlier work.

Source text for carboxyl esterase: Thus, piperazino carbamate and 4-piperidino-piperidino carbamate protecting groups are enzyme-cleavable by enzymes such as carboxyl esterase, which occurs in serum and plasma. Phosphate protecting groups are cleavable by phosphatase enzymes such as alkaline phosphatase.

On to `Cc1c[nH]c2c1[C@@]13C[C@@H]1CN(C(=O)c1cc4cc(NC(=O)c5cc6ccccc6o5)ccc4[nH]1)C3=CC2=O` [Adozelesin], for which, in [1], the “systemic toxicity in clinical evaluation” value was “high systemic toxicity” and the “therapeutic effects in clinical evaluation” value is “poor therapeutic effects”.
On to `COc1c(O)c2c(c3cc(C(=O)N4CCc5c4c(O)c(OC)c4[nH]c(C(=O)N6CC7CC78C6=CC(=O)c6[nH]cc(C)c68)cc54)[nH]c13)CCN2C(N)=O` (centres unmarked) [CC-1065], for which the “delayed toxicity in mice” value in the data set on mice is recorded as “delayed hepatotoxicity leading to mortality on day 50”. In [2], the “potency in vitro relative to commonly used anti-cancer drugs” value is “about 1000 fold”.
With `CCN(CC)c1ccc2cc(C(=O)Nc3ccc4[nH]c(C(=O)N5C[C@@H](CCl)c6c5cc(OC(=O)Nc5ccccc5)c5[nH]cc(C)c65)cc4c3)oc2c1` [Carzelesin], in data set [1], the “systemic toxicity in clinical evaluation” value was “high systemic toxicity” and the “therapeutic effects in clinical evaluation” value is “poor therapeutic effects”. Moreover, the lability of prodrug result in data set [3] is reported as “too labile for therapeutic use”.
Consider `CN1CCN(C(=O)Oc2cc3c(c4ccccc24)[C@H](CCl)CN3C(=O)c2cc3cc(NC(=O)c4cc5cc(NC(=O)CCS)ccc5[nH]4)ccc3[nH]2)CC1` [DC2], for which the water solubility result in data set [4] is “enhanced water solubility”. In [5], the “stability in aqueous solutions” value was “extremely stable”. For the same molecule, the “conversion into the parent drug DC1” value in the data set on carboxyl esterase is “can be converted into the parent drug DC1”.
On the same counts, the results for `O=C(CCS)Nc1ccc2[nH]c(C(=O)Nc3ccc4[nH]c(C(=O)N5C[C@@H](CCl)c6c5cc(OC(=O)N5CCC(N7CCCCC7)CC5)c5ccccc65)cc4c3)cc2c1` [DC3] are “enhanced water solubility”, “extremely stable” and “can be converted into the parent drug DC1”.
As for `O=C(CCS)Nc1ccc2[nH]c(C(=O)Nc3ccc4[nH]c(C(=O)N5C[C@@H](CCl)c6c5cc(OP(=O)(O)O)c5ccccc65)cc4c3)cc2c1` [DC4], the water solubility result in data set [4] is given as “soluble”. The “stability in aqueous solutions” value in data set [5] was “extremely stable”. For the same molecule, in the data set with alkaline phosphatase, the “conversion into the parent drug DC1” value is recorded as “converts it into the parent drug DC1”.
For `COc1cc([C@@H]2c3cc4c(cc3[C@@H](O[C@@H]3O[C@@H]5CO[C@@H](C)O[C@H]5[C@H](O)[C@H]3O)[C@H]3COC(=O)[C@H]23)OCO4)cc(OC)c1OP(=O)(O)O` [etoposide phosphate], the “conversion in vivo into active drug” value in [6] is reported as “rapidly converted into active drug”.
